System in the first test: not listed separately
Briefly: Inhibition of TPA-stimulated release of HB-EGF-AP fusion protein from HT-1080 transfectant. The test is classed as cell-based. As to conditions: Homo sapiens, 1 h, 60 nM TPA for 60 min, AP activity of culture supernatant at 405 nm. The protocol:
Human fibrosarcoma HT-1080 transfectant expressing fusion protein of HB-EGF and human placental alkaline phosphatase (AP) were used for following tests.
The cultured transfectant was treated with Trypsin-EDTA solution, and suspended in Minimum Essential Medium without phenol red; supplemented with 10% FCS(hereinafter referred to as MEM) at the concentration of 1.0×10^5 cells/ml. Each 0.2 ml of the cell suspension was dispensed into individual wells of 96 well microplate, and incubated overnight in a CO2 incubator at 37° C. After the incubation, the culture supernatant was removed by suction and the wells were washed with 0.2 ml/well of phosphate buffered saline. The cells were pretreated with 0.1 ml/well of the test compound solution [dimethyl sulfoxide (hereinafter referred to as DMSO) solution was diluted to 100 times with MEM] for 30 min in a CO2 incubator at 37° C. Then the culture supernatant was removed by suction and cells were treated with 0.2 ml/well of TPA solution (120 μM of DMSO solution was diluted to 60 nM with MEM) containing the same concentration of the compound as pretreatment for 60 min in a CO2 incubator at 37° C. The cells pretreated with MEM and incubated with only the TPA solution containing no test compound were used as control.
After these treatments, each 0.1 ml of culture supernatant collected from each well and 0.1 ml of MEM as background were transferred to individual wells of new 96 well microplate and incubated at 65° C. for 10 min after plate sealing to inactivate endogenous AP in MEM and cells. 0.1 ml of the substrate solution (prepared by diluting an aqueous 100 mg/ml p-nitrophenyl phosphate solution prepared previously 100 times with 0.01% magnesium chloride/1 M diethanolamine before use) for AP was added to each well and incubated for 120 minutes at room temperature in the dark. The absorbance at a wavelength of 405 nm of each well was measured using a microplate reader.
The compound `COc1ccc(S(=O)(=O)N2C[C@H](O)[C@@H](O)[C@H](O)[C@@H]2C(=O)NO)cc1` [Compound a, (2R,3R,4R,5S)-3,4,5-trihydroxy-1-(4′-methoxybenzenesulfonyl)-piperidine-2-carboxylic acid hydroxamide] yielded an IC50 of 610 nM. As to `CCOCCOc1ccc(S(=O)(=O)N2C[C@H](O)[C@@H](O)[C@H](O)[C@@H]2C(=O)NO)cc1` [Compound b, (2R,3R,4R,5S)-1-(4′-ethoxyethoxy-benzenesulfonyl)-3,4,5-trihydroxy-piperidine-2-carboxylic acid hydroxamide], the IC50 was found to be 450 nM. For `O=C(NO)[C@H]1[C@@H](O)[C@H](O)[C@@H](O)CN1S(=O)(=O)c1ccc(Oc2ccccc2)cc1` [Compound c, (2R,3R,4R,5S)-3,4,5-trihydroxy-1-(4′-phenoxybenzenesulfonyl)-piperidine-2-carboxylic acid hydroxamide], the midpoint of inhibition, the IC50, lay at 350 nM. As for `COc1ccc(S(=O)(=O)N2C[C@H](O)[C@@H](O)[C@@H](O)[C@@H]2C(=O)NO)cc1` [Compound d, (2R,3S,4R,5S)-3,4,5-trihydroxy-1-(4′-methoxybenzenesulfonyl)-piperidine-2-carboxylic acid hydroxamide], inhibition was half-maximal at 1600 nM (IC50). The same measure, in the same setting: the value for `O=C(NO)[C@H]1[C@@H](O)[C@H](O)[C@H](O)CN1S(=O)(=O)c1ccc(Oc2ccccc2)cc1` [Compound e, (2R,3R,4R,5R)-3,4,5-trihydroxy-1-(4′-phenoxybenzenesulfonyl)-piperidine-2-carboxylic acid hydroxamide] was 340 nM.

Another test concerns epidermal hyperplasia in male BALB/c mice. Put plainly: TPA-induced epidermal hyperplasia on mouse dorsal skin (epidermal thickness). The test is classed as in vivo. As to conditions: topical application in acetone 5 minutes, 24 hours and 48 hours after TPA; skin excised at 72 hours; FIG. 1. The protocol:
After backs of male BALB/c mice were shaved, 10 μL of a TPA-acetone solution (0.1 mM) was applied to the dorsal skin surface in an area of about 1 cm^2. In the medicine-treated group, a volume of 20 μL of a solution prepared by dissolving the test compound in acetone was applied to the same area 5 minutes, 24 hours and 48 hours after TPA application. In the non-treated group, only TPA was applied. In the control group, acetone was applied instead of the TPA-acetone solution.
The mice were sacrificed and the skin tissues were excised 72 hours after TPA application. Then the tissues were fixed with formalin, the vertical sections including the center of the TPA- or acetone-treated area were prepared and embedded in paraffin according to the conventional method. And they were stained by hematoxylin-eosin after removing paraffin. The epidermal thickness was measured using a microscope.
In FIG. 1, the numeral in the ordinate represents the epidermal thickness (μm). A bar graph of TPA (-) represents the epidermal thickness of the control group and a bar graph of TPA represents the epidermal thickness of the non-treated group. The respective bar graphs of 1, 10 and 100 denote the epidermal thickness of the group wherein the test compound is administered at a dose of 1, 10 and 100 (μg/wound) of each test compound. […]
With `O=C(NO)[C@H]1[C@@H](O)[C@H](O)[C@@H](O)CN1S(=O)(=O)c1ccc(Oc2ccccc2)cc1` [Compound c, (2R,3R,4R,5S)-3,4,5-trihydroxy-1-(4′-phenoxybenzenesulfonyl)-piperidine-2-carboxylic acid hydroxamide], the “hyperplasia inhibitory activity (epidermal thickness)” value is “hyperplasia inhibitory activity”.

For orientation: IC50 means the concentration at which inhibition is half-maximal. Low values mean greater potency in that assay, high ones weaker potency in that assay.

The record behind these values is patent US20050137221A1, “Novel azasugar derivative and drug containing the same as the active ingredient” (priority 2002, published 2005).
